Data set [1] relates to A549. The experiment in a line: Antiproliferative activity against human A549 cells assessed as inhibition of cell viability. The class given is functional, cell-based.
Data set [2] can be described thus: Antiproliferative activity against human HL7702 cells assessed as inhibition of cell viability. The class given is toxicity, cell-based. To be noted: HL7702 (L02) cells.
For the next data set, the system named is A549/CDDP. The experiment in a line: Antiproliferative activity against human A549/DDP cells assessed as inhibition of cell viability. The class given is functional, cell-based.
Data set [3] deals with K562. Nature of the data set: Antiproliferative activity against human K562 cells incubated for 48 hrs. The class given is functional, cell-based. The following applies: K562, 48 h.
The subject of data set [4] is HeLa. The experiment in a line: Antiproliferative activity against human HeLa cells incubated for 48 hrs. Format: functional, cell-based.
For another data set, the system named is CT26. The experiment in a line: Antiproliferative activity against mouse CT26 cells incubated for 48 hrs. Format: functional, cell-based. To be noted: CT26, 48 h.
The test system of data set [5] is K562. Nature of the data set: Antiproliferative activity against human K562 cells. The class given is functional, cell-based.
Data set [6] is described as follows: Antiproliferative activity against mouse MC3T3-E1 cells. Format: toxicity, cell-based.
In data set [7] the test system is HepG2. Nature of the data set: Antiproliferative activity against human HepG2 cells incubated by 48 hrs by MTT assay. Format: functional, cell-based. The following applies: HepG2, 48 h. For orientation: Tetrazolium dyes change colour on reduction, which living cells bring about.
The subject of data set [8] is MCF7. The experiment in a line: Antiproliferative activity against human MCF7 cells. The class given is functional, cell-based.
Data set [9] relates to A549. The experiment in a line: Antiproliferative activity against human A549 cells incubated by 48 hrs by MTT assay. Format: functional, cell-based. The following applies: A549, 48 h.
Data set [10] relates to SK-OV-3. Nature of the data set: Antiproliferative activity against human SK-OV-3 cells assessed as inhibition of cell growth. Format: functional, cell-based.
In data set [11] the test system is A549. Nature of the data set: Antiproliferative activity against human A549 cells measured after 48 hrs by MTT assay. Format: functional, cell-based. To be noted: A549, 48 h.
In data set [12] the test system is A549. Nature of the data set: Antiproliferative activity against human A549 cells. Format: functional, cell-based.
Data set [13] has as its system HepG2. Nature of the data set: Antiproliferative activity against human HepG2 cells measured after 48 hrs by MTT assay. The class given is functional, cell-based. The following applies: HepG2, 48 h.
For data set [14], the system named is T-24. Nature of the data set: Antiproliferative activity against human T24 cells assessed as inhibition of cell growth. The class given is functional, cell-based.
Data set [15] concerns K562. Nature of the data set: Antiproliferative activity against human K562 cells incubated by 48 hrs by MTT assay. The class given is functional, cell-based. The following applies: K562, 48 h.
The subject of data set [16] is T-24. The experiment in a line: Antiproliferative activity against human T24 cells measured after 48 hrs by MTT assay. The following applies: T-24, 48 h. The class given is functional, cell-based.
A further data set relates to HCT-116. Nature of the data set: Antiproliferative activity against human HCT-116 cells measured after 48 hrs by MTT assay. The class given is functional, cell-based. The following applies: HCT-116, 48 h.
In a further data set the test system is MGC-803. Nature of the data set: Antiproliferative activity against human MGC-803 cells measured after 48 hrs by MTT assay. The following applies: MGC-803, 48 h. The class given is functional, cell-based.
The test system of another data set is NCI/ADR-RES. The experiment in a line: Antiproliferative activity against human MCF7ADR cells. The class given is functional, cell-based.
Data set [17] concerns HepG2. Nature of the data set: Antiproliferative activity against human HepG2 cells assessed as inhibition of cell growth. The class given is functional, cell-based.
For the next data set, the system named is WEHI3B. The experiment in a line: Antiproliferative activity against mouse WEHI3B cells assessed as inhibition of cell growth measured after 48 hrs. Format: functional, cell-based.
For another data set, the system named is Bel-7402. Nature of the data set: Antiproliferative activity against human Bel-7402 cells measured after 48 hrs by MTT assay. Format: functional, cell-based. To be noted: Bel-7402, 48 h.
Data set [18] is described as follows: Antiproliferative activity against human HL7702 cells measured after 48 hrs by MTT assay. Format: toxicity, cell-based. To be noted: HL7702 (L02) cells.
The subject of a further data set is MDA-MB-231. The experiment in a line: Antiproliferative activity against human MDA-MB-231 cells measured after 48 hrs by MTT assay. The following applies: MDA-MB-231, 48 h. The class given is functional, cell-based.
The subject of data set [19] is A549. Nature of the data set: Antiproliferative activity against human A549 cells assessed as cell growth inhibition. Format: functional, cell-based.
Another data set has as its system PC-3. The experiment in a line: Antiproliferative activity against human PC-3 cells incubated by 48 hrs by MTT assay. The class given is functional, cell-based. To be noted: PC-3, 48 h.
For data set [20], the system named is HeLa. Nature of the data set: Antiproliferative activity against human HeLa cells assessed as cell growth inhibition. Format: functional, cell-based.
The nature of data set [21]: Antiproliferative activity against human HL7702 cells assessed as inhibition of cell growth. The class given is toxicity, cell-based. The following applies: HL7702 (L02) cells.
Data set [22] has as its system MCF7. Nature of the data set: Antiproliferative activity against human MCF7 cells assessed as inhibition of cell growth. The class given is functional, cell-based.
Data set [23] is described as follows: Cytotoxicity against human HEK293 cells assessed as inhibition of cell growth. Format: toxicity, cell-based.
Data set [24] relates to HeLa. The experiment in a line: Antiproliferative activity against human HeLa cells assessed as inhibition of cell growth. Format: functional, cell-based.
Data set [25] concerns A549. The experiment in a line: Antiproliferative activity against human A549 cells assessed as inhibition of cell growth. Format: functional, cell-based.
A further data set relates to A498. The experiment in a line: Cytotoxicity against human A498 cells measured after 3 days by MTT assay. Format: functional, cell-based. To be noted: A498, 72 h.
Data set [26] relates to SK-OV-3. Nature of the data set: Cytotoxicity against human SK-OV-3 cells measured after 3 days by MTT assay. To be noted: SK-OV-3, 72 h. Format: functional, cell-based.
Data set [27] relates to MCF7. Nature of the data set: Cytotoxicity against human MCF7 cells measured after 3 days by MTT assay. Format: functional, cell-based. To be noted: MCF7, 72 h.

The results in this text go back to ChEMBL document CHEMBL5532682, “Recent advances of tryptanthrin and its derivatives as potential anticancer agents” (RSC Med Chem, 2024).

`COc1cc(/C=C/C(=O)CC(=O)/C=C/c2ccc(O)c(OC)c2)ccc1O` [CURCUMIN]: the IC50 (commonly the concentration at which inhibition is half-maximal) in the data set on A549 [1] is 35.8 µM; in data set [2], more than 100 µM; with A549/CDDP it was 67.2 µM.

For `CC(C)NC(=O)[C@@H]1[C@@]2(c3ccccc3)[C@H]3CCCN3[C@@]3(c4ccccc4-n4c3nc3ccccc3c4=O)[C@@]12c1ccccc1`, the IC50 with K562 [3] is 4.8 µM; in the data set with HeLa [4], more than 50 µM; with CT26 it was more than 50 µM; in the data set on K562 [5] it was 4.8 µM.

Take `O=C(CCCCN(Cc1ccccn1)Cc1ccccn1)Nc1ccc2c(c1)C(=O)c1nc3ccccc3c(=O)n1-2`: the IC50 with A549 [1] was 63.7 µM; in [2], more than 100 µM; in the data set on A549/CDDP, 52.4 µM.

As for `O=C1c2ccccc2-n2c1nc1ccccc1c2=O` [TRYPTANTHRIN], the IC50 in data set [6] was more than 100 µM; in the data set on HepG2 [7], 9.51 µM; with MCF7 [8], 94.2 µM; with A549 [9] it was 8.25 µM; with SK-OV-3 [10], 85.1 µM; in the data set with A549 [11] it was 74.7 µM. Also, the IC50 was 74.7 µM with A549 [12]; 90.1 µM in the data set with HepG2 [13]; more than 150 µM in the data set on T-24 [14]; 12 µM with K562 [15]; more than 100 µM in the data set with A549 [1]; more than 150 µM in the data set with T-24 [16]. In addition, the IC50 was 17.5 µM in the data set with HCT-116; more than 100 µM in data set [2]; 70.2 µM with MGC-803; 96.4 µM in the data set with NCI/ADR-RES; more than 100 µM in the data set on A549/CDDP; 90.1 µM in the data set on HepG2 [17]. In addition, the IC50 was 1.5 µM with WEHI3B; 41.3 µM with Bel-7402; more than 100 µM with MDA-MB-231; more than 150 µM with A549 [19]; 14.5 µM with PC-3; more than 150 µM in the data set on HeLa [20]. Moreover, the IC50 in [21] came out at 90.1 µM. In [18], the midpoint of inhibition, the IC50 at 48 h, lay at 90.1 µM.

As for `Cc1ccc2c(c1)[C@@]1(N[C@H](C(=O)NCC(=O)O)[C@]3(c4ccccc4)[C@@H](c4ccccc4)[C@]13c1ccccc1)c1nc3ccccc3c(=O)n1-2`, the half-maximal inhibitory concentration (IC50) is 10.2 µM with K562 [3], more than 50 µM in the data set with HeLa [4] and more than 50 µM in the data set with CT26.

Take `c1ccc(CNCc2ccccn2)nc1`: the IC50 (in the data set with A549 [1]; in data set [2]; in the data set on A549/CDDP) was more than 100 µM each time.

Take `O=C1C2C=CC=CC2=NC2/C(=N\Nc3nc(-c4ccc(F)cc4)cs3)c3ccccc3N12` (centres undefined): the IC50 stood at 10.2 µM in the data set on MCF7 [22], 86.1 µM in [23], 9.54 µM in the data set on HeLa [24] and 6.67 µM with A549 [25].

`N/N=C1/c2cc(F)ccc2-n2c1nc1ccccc1c2=O`: the IC50 in the data set with A498 was 1.26 µM; in the data set on SK-OV-3 [26], 8.51 µM; with MCF7 [27] it was 1.4 µM.
